Test results taken from EP0103895A2, “Novel hydroxylamine derivatives, production and use thereof” (MEIJI SEIKA KABUSHIKI KAISHA, priority 1982, dated 1984).
“And” between values parts separate entries of the source, which are not always exact repeats. Equal entries are not always repeated. Where two headings read alike, the source gives them in different places.

What was measured:
[1] = tested on: fowl roundworm (As. galli); experiment: Anthelmintic test in chickens infected with fowl roundworm, single oral dose of 40 mg per Kg, worm bodies counted within 24 hours (Test Example E1); assay type: in vivo, Ascaridia galli; settings: 40 mg per Kg oral in gelatin capsule; for inhibition in vivo at 40 mg/kg: Ascaridia galli, 24 h, chicken No.1, read-out: Anthelmintic effect after one day
Procedure: Chickens infected with fowl roundworm (As. galli) were employed in groups each consisting of five chickens. The compound provided for testing was orally administered in a quantity of 40 mg per Kg of body weight to each chicken in a gelatin capsule. The number of worm bodies discharged within 24 hours after administration of the medicine was counted. Then the chicken was killed, and the number of worm bodies remaining in the enteron was counted to determine the anthelmintic percentage, wherefrom the anthelmintic effect was judged.

[2] = tested on: fowl roundworm (As. galli); experiment: Anthelmintic test in chickens infected with fowl roundworm, compound added to feed at 250 ppm and 1,000 ppm, E.P.G. and worm count on 5th day (Test Example E2); assay type: in vivo, Ascaridia galli; settings: for E.P.G. after 5 days: worm egg number in 1 g of fecal matter; for anthelmintic effect / inhibition in vivo at 250 ppm / inhibition in vivo at 1000 ppm: 5th day; for inhibition in vivo at 250 ppm / inhibition in vivo at 1000 ppm: Ascaridia galli, feed or water, 120 h, read-out: Anthelmintic effect
Procedure: Chickens infected with fowl roundworm (As. galli) were employed in groups each of two chickens.
The compound provided for the test was dissolved in a small amount of ethyl alcohol and adsorbed on defatted rice bran and added to chicken feed at levels of 250 ppm and 1,000 ppm. As control, a feed containing no such compound was employed.
Fecal matter testing was conducted before initiation of the test and on the 5th day after initiation of the test. The reduction in worm egg count was examined by calculating the E.P.G. (worm egg number in 1 g of fecal matter). The number of discharged worm bodies and the number of worm bodies remaining in the enteron when the chicken was killed on 5th day were counted to determined the anthelmintic percentage, from which the anthelmintic effect was judged.

[3] = tested on: fowl roundworm (As. galli); experiment: Anthelmintic test in chickens artificially infected with fowl roundworm, compound added to feed, E.P.G. and worm count up to 21st day (Test Examples A2, B2, C2, D2); assay type: in vivo, Ascaridia galli; settings: chicken
Procedure: Chickens artificially infected with fowl roundworm (As. galli) were employed in groups each of two chickens.
Fecal matter testing was conducted before initiation of the test and on the 7th, 14th and 21st day after initiation of the test. Reduction in worm egg number was examined by calculating E.P.G. (worm eggs per 1 g of fecal matter), and the number of discharged worm bodies and the number of worm bodies remaining in the enteron when the chicken was killed on 21st day were counted to determine the anthelmintic percentage, from which the anthelmintic effect was judged.

[4] = tested on: canine filaria; Dirofilaria immitis; experiment: Test of anthelmintic effect against canine filaria in naturally infected dogs, subcutaneous injection, microfilaria in blood and adult filaria at autopsy (Test Examples A10, B10, C10, D10); assay type: in vivo; settings: for inhibition in vivo at 30 mg/kg: Dirofilaria immitis, sc, 240 h
Procedure: Eight dogs infected with canine filaria; Diro- filaria immitis (naturally infected dogs) were employed in groups each of two dogs.
The compounds provided for tests were Compound Nos. Al, A3 and A12. 20 mg of each was administered by subcutaneous injection per Kg of body weight to each of the two dogs as a suspension in 1% "Tween 80" solution once per day for three days. As control, 3 ml of the 1% "Tween 80" solution was subcutaneously injected into two dogs once per day for three days.
Before administration and on the 10th day after administration, 20 µl of earlobe blood of each dog was sampled and examined to determine the change in microfilaria (mf) according to the concentrated smear color method, and judgement on the effect on microfilaria (mf) was made. Judgement relating to adult filaria was made on the 10th day after the last administration by killing the dogs and carrying out autopsis.
30 mg of each compound was administered by subcutaneous injection per Kg of body weight to each of the two dogs as a suspension in 1% "Tween 80" solution once per day for three days. As control, 3 ml of the 1% "Tween 80" solution was subcutaneously injected into two dogs once per day for three days.
30 mg of each compound was administered by subcutaneous injection per Kg of body weight to each of two dogs as a suspension in 1% "Tween 80" solution once per day for three days. As control, 3 ml of the 1% "Tween 80" solution was subcutaneously injected to two dogs once per day for three days.
20 mg of each compound was administered by subcutaneous injection per kg of body weight once per day for three days to each of two dogs. These compounds were administered as a suspension in 1% "Tween 80" in the case of Compound No.Dl3 and as solutions dissolved in distilled water for injection in the case of Compounds Nos. D10 and D16, respectively. As control, 3 ml of the 1% "Tween 80" solution was subcutaneously injected into two dogs once per day for three days.

[5] = tested on: fowl roundworm (Ascaridia galli); experiment: Anthelmintic test in chickens artificially infected with fowl roundworm, single oral dose in gelatin capsule, worm bodies counted within 48 hours (Test Examples A1, B1, C1, D1); assay type: in vivo; settings: Ascaridia galli, po, 48 h, chicken, chickens No.1-3, read-out: Anthelmintic effect after 48 hours
Procedure: Chickens infected artificially with fowl roundworm (Ascaridia galli) were employed in groups each consisting of three chickens. Fecal matter testing was conducted before administration of medicine to confirm infection with the worm. The quantity of the compound provided for testing was 10 mg and 20 mg per Kg of body weight, which was orally administered each in a gelatin capsule to the chicken. The number of worm bodies discharged within 48 hours after administration of medicine was counted, the chicken was killed after 48 hours and the number of worm bodies remaining in the enteron was counted to determine the anthelmintic percentage, wherefrom the antihelmintic effect was judged.
The same as that in Test Example Al.
The same as that in Test Example Al except that the compound provided for testing was in quantities of 30 mg and 50 mg per Kg of body weight, which were orally administered to the chickens in gelatin capsules.
The same as that in Test Example Al, except that the compounds provided for testing were used in quantities of 15 mg and 30 mg per Kg of body weight, which were orally administered each in a gelatin capsule to the chicken.

[6] = 1000 ppm in feed, chicken No. 1
[7] = 1000 ppm in feed, chicken No. 2

| Structure (SMILES) | inhibition in vivo at 40 mg/kg [1] | Anthelmintic effect after one day ([1]; chicken No.2) | Anthelmintic effect after one day ([1]; chicken No.3) | Anthelmintic effect after one day ([1]; chicken No.4) | Anthelmintic effect after one day ([1]; chicken No.5) | E.P.G. after 5 days ([2]; 250 ppm in feed, chicken No. 1) | anthelmintic effect ([2]; 250 ppm in feed, chicken No. 2) | E.P.G. after 5 days ([2]; 250 ppm in feed, chicken No. 2) | E.P.G. after 5 days [2, 6] | anthelmintic effect [2, 7] | E.P.G. after 5 days [2, 7] | inhibition in vivo at 250 ppm ([2]; 250 ppm in feed, chicken No. 1) | inhibition in vivo at 1000 ppm [2, 6] | further results |
| --- | --- | --- | --- | --- | --- | --- | --- | --- | --- | --- | --- | --- | --- | --- |
| C#CCON(CC#C)C(=O)c1ccccc1Cl [Compound E8, N,O-dipropargyl-N-O-chlorobenzoylhydroxylamine] | 100% | +++ (100%) | +++ (100%) | +++ (100%) | +++ (100%) | 0 | +++ (100%) | 0 | 0 | +++ (100%) | 0 | 100% | 100% |  |
| C#CCON(CC#C)C(=O)CCCCCCCCCCCCCCCCC [Compound E11, N,O-dipropargyl-N-stearoyl- hydroxylamine] | 100% | +++ (100%) | +++ (100%) | +++ (100%) | +++ (100%) | 0 | +++ (100%) | 0 | 0 | +++ (100%) | 0 | 100% | 100% |  |
| C#CCON(C=O)CC#C [Compound E9, N,O-dipro- pargyl-N-formylhydroxylamine] | 100% | +++ (100%) | +++ (100%) | +++ (100%) | +++ (100%) | 0 | +++ (100%) | 0 | 0 | +++ (100%) | 0 | 100% | 100% |  |
| C=CCON(CC=CC)C(C)=O [Compound C9] |  |  |  |  |  |  |  |  |  |  |  |  |  | inhibition in vivo at 25 ppm ([3]; Ascaridia galli, feed or water, 504 h, 25 ppm in feed, read-out: Anthelmintic effect): 100%; inhibition in vivo at 50 ppm ([3]; Ascaridia galli, feed or water, 504 h, 50 ppm in feed, read-out: Anthelmintic effect): 100%; Change of E.P.G. 21st day ([3]; 25 ppm in feed): 0; Change of E.P.G. 21st day ([3]; 50 ppm in feed): 0; inhibition in vivo at 30 mg/kg ([4]; dog, 30 mg/Kg x 3, subcutaneous injection, read-out: Effect on adult filaria: Percent of worms killed): 70%; inhibition in vivo at 30 mg/kg ([4]; dogs, administration of 30 mg/Kg repeated three times, given as about 50% or more, read-out: anthelmintic effect against adult filaria): ≥ 50%; Number of microfilaria/20 µl On 10th day after the last administration ([4]; dog, 30 mg/Kg x 3, subcutaneous injection, suspension in 1% Tween 80): 0 /20 µl; Effect on adult filaria: Number of worms killed/ Total parasite ([4]; dog, 30 mg/Kg x 3, subcutaneous injection, 30 mg/kg): 14/20 and 19/27; anthelmintic effect against microfilaria (mf) ([4]; dogs, administration of 30 mg/Kg repeated three times): marked anthelmintic effect; inhibition in vivo at 30 mg/kg ([5]; 30 mg/Kg oral in gelatin capsule): 100%; inhibition in vivo at 50 mg/kg ([5]; 50 mg/Kg oral in gelatin capsule): 100% |
| C#CCON(CC#C)C(C)=O [Compound E1, N,O-dipropargyl-N-acetylhydroxylamine] | 100% | +++ (100%) | +++ (100%) | +++ (100%) | +++ (100%) | 0 | +++ (100%) | 0 | 0 | +++ (100%) | 0 | 100% | 100% |  |
| C#CCON(CC#C)C(=O)CCC [Compound E3, N,O-dipropargyl-N-butylylhydroxylamine] | 100% | +++ (100%) | +++ (100%) | +++ (100%) | +++ (100%) | 0 | +++ (100%) | 0 | 0 | +++ (100%) | 0 | 100% | 100% |  |
| C#CCON(CC#C)C(=O)CCCCC [Compound E5, N,O-dipropargyl-N-caproylhydroxylamine] | 100% | +++ (100%) | +++ (100%) | +++ (100%) | +++ (100%) | 0 | +++ (100%) | 0 | 0 | +++ (100%) | 0 | 100% | 100% |  |
| C#CCON(CC#C)C(=O)CCCCCCCCCCC [Compound E10, N,O-dipropargyl-N-lauroylhydroxylamine] | 100% | +++ (100%) | +++ (100%) | +++ (100%) | +++ (100%) | 0 | +++ (100%) | 0 | 0 | +++ (100%) | 0 | 100% | 100% |  |
| C#CCON(CC#C)C(=O)CCCCCCC/C=C\CCCCCCCC [Compound E6, N,O-dipropargyl-N-oleoylhydroxylamine] | 100% | +++ (100%) | +++ (100%) | +++ (100%) | +++ (100%) | 0 | +++ (100%) | 0 | 0 | +++ (100%) | 0 | 100% | 100% |  |
